Reference: paper PMC10607377, “The PKG Inhibitor CN238 Affords Functional Protection of Photoreceptors and Ganglion Cells against Retinal Degeneration” (International Journal of Molecular Sciences, 2023)
pEC50: −log10 of the molar value.

How the values were obtained:
cone CNG channel (CNGA3) = molecular target: T1, cone CNG channel (CNGA3) (Homo sapiens, UniProt Q16281+Q9NQW8); assay: inside-out patch-clamp, concentration-activation; assay type: cell-based
T1 construct: CNGA3:CNGB3 expressed in Xenopus oocytes; with CNGB3
T1 sequence (Q16281 1-694): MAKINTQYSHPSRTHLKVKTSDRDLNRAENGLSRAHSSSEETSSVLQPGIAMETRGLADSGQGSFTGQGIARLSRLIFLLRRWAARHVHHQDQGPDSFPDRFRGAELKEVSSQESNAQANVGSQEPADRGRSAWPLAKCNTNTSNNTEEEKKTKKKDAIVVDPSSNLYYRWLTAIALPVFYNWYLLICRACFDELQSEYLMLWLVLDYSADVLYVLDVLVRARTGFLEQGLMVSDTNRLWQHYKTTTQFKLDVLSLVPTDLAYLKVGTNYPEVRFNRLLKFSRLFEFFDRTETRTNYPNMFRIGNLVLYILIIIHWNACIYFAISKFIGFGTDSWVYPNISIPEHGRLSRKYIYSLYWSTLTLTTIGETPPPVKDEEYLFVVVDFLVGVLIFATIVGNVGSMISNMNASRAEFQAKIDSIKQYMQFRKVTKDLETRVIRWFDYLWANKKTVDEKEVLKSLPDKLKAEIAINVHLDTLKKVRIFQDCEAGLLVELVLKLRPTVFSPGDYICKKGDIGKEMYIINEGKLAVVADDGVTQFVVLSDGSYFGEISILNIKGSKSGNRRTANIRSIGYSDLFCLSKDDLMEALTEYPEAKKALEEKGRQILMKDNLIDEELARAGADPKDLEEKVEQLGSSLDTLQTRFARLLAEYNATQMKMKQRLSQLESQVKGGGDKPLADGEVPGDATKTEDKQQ
T1 sequence (Q9NQW8 1-809): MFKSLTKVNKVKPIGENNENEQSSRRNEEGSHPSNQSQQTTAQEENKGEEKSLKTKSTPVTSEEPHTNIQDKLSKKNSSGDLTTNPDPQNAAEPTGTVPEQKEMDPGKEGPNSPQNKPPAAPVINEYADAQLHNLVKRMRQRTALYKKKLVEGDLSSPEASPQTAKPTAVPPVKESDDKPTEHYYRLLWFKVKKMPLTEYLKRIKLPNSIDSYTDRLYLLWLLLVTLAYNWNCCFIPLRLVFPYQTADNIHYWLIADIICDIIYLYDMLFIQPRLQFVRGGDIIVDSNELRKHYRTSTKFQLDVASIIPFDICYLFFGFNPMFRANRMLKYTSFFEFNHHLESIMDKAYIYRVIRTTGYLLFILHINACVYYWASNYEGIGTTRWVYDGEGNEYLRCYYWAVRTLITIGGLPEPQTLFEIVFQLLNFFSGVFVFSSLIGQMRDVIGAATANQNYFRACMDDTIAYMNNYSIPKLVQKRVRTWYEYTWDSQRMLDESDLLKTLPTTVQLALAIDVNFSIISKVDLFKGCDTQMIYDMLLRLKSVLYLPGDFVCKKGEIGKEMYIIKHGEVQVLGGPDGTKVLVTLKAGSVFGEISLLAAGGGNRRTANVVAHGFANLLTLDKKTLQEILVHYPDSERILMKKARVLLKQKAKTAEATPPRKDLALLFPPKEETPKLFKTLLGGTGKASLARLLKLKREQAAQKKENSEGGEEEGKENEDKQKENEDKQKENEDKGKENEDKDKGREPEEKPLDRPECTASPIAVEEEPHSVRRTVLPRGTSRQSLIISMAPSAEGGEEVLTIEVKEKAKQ

PKG2 = molecular target: T2, PKG2 (Homo sapiens, UniProt Q13237); assay: coupled spectrophotometric kinase activation assay; assay type: biochemical
T2 construct: gene PRKG2; FLAG-Strep-Strep-tagged human PKG2 (1–762) WT
T2 sequence (Q13237 1-762): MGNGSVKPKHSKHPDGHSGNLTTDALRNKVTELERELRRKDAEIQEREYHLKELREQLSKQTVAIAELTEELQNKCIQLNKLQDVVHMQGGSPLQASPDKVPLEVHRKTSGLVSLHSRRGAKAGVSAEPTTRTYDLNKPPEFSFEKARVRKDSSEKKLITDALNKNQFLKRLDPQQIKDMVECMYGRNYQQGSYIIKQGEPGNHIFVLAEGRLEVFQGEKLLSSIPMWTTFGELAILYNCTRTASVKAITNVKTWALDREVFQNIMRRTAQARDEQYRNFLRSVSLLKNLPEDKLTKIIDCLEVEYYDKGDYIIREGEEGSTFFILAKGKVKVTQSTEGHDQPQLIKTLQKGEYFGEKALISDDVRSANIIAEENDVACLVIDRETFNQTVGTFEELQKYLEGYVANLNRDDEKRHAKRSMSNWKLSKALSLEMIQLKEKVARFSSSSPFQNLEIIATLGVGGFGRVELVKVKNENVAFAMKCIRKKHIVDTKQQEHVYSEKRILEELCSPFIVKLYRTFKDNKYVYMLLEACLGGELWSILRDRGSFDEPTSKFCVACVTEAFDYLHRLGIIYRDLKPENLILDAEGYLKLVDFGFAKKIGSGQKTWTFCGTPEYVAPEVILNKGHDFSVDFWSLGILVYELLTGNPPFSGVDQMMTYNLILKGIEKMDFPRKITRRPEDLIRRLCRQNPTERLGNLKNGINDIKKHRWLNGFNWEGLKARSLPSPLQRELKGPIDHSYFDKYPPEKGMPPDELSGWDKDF

PKG1β = molecular target: T3, PKG1β (Homo sapiens, UniProt Q13976)
T3 construct: gene PRKG1
T3 sequence (Q13976 4-686 isoform Q13976-2): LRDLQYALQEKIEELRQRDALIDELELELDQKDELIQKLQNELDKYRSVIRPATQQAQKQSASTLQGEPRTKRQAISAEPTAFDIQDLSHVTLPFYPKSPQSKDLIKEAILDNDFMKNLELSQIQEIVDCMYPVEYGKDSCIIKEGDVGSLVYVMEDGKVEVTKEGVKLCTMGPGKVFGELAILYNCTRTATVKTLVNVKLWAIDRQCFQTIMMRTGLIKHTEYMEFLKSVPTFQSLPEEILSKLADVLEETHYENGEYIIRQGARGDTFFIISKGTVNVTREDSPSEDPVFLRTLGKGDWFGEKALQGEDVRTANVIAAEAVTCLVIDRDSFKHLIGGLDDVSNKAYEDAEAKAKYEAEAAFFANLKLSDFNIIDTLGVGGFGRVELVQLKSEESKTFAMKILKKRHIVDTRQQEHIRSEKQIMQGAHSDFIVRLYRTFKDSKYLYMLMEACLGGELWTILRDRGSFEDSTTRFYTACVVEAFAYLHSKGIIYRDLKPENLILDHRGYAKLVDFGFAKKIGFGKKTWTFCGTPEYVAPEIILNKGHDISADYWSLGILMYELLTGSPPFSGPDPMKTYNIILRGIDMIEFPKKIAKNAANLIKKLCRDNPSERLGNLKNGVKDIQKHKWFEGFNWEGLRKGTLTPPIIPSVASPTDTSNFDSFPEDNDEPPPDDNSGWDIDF

pEC50 (cone CNG channel (CNGA3)): 4.97
SMILES: Nc1nc2c(ncn2[C@@H]2O[C@@H]3COP(=O)(O)O[C@H]3[C@H]2O)c(=O)[nH]1 [cGMP]
coupled spectrophotometric kinase activation assay (PKG2): Activation with cGMP was determined for all PKG isoforms | coupled spectrophotometric kinase activation assay (PKG1β): Activation with cGMP was determined for all PKG isoforms
